Data from patent US4377687A, “Analogs of 1-(2-chloroethyl)-1-nitroso-3-(cycloheyl)-urea substituted by heterocyclic rings or alkyl radicals” (Stiftung Deutsches Krebsforschungszentrum, priority 1978, dated 1983).
Like-named read-outs stand apart in the source and are kept apart here.

Legend:
Yoshida sarcoma [1] = assay type: in vivo, rat (male Sprague-Dawley rats); details: i.p.
[2] = Mean animal weight / weight gain after tumor transplantation; assay type: in vivo, rat (Sprague-Dawley rats); details: CP 70 (exp. 1-3), BCNU 25, MeCCNU 45 (exp. 1), picolyl-3-CNU 25, its HCl 25 (exp. 2), morpholino-CNU 28, piperidino-CNU 15 (exp. 3), dimethylmorpholino-CNU 45 mg/kg (exp. 4); for Mean animal weight on day 50: day 50 after tumor transplantation; for Mean animal weight on day 100: day 100 after tumor transplantation
Description: (§1) Male Sprague-Dawley rats were used in the experiments. Yoshida sarcome in ascites form was maintained in the same strain of rats by serial intraperitoneal injection of 0,5 ml of ascites fluid.
(§2) 3×10^6 cells were injected into the colon wall in a manner known per se. The chemotherapeutic treatment was carried out on the eighth day after implantation of the tumor cells.
(§3) Water-insoluble compounds were dissolved in Cremophor EL/ethanol/physiological saline (20:20:60: vol.%). Water-soluble substances were dissolved in physiological saline. Cremophor EL is a surfactant on the basis of polyethoxylated castor oil. All test compounds were administered introperitoneally. The nitrosoureas were applied at approximately equitoxic doses corresponding to about 80% of the acute LD50 values observed in healthy rats of the same strain over a 28-day observation period.
In all treated animals and at all doses tested the mean weight gain was lower than in the controls. Table 3 gives the mean animal weights measured 50 and 100 days after tumor transplantation in experiments 1 to 5.

Yoshida sarcoma [3] = assay type: in vivo, rat (male Sprague-Dawley rats); details: for tumor-free animals at the end of the experiment (in words) / increase in tumor-free animals (cures) above controls: 120 days; for increase in tumor-free animals (cures) above controls: BCNU, MeCCNU 45, dimethylmorpholine-CNU 45, piperidino-CNU 15, picolyl-3-CNU.HCl 25 mg/kg; for effect on survival time / life expectancy (in words): experiments 1-4, MeCCNU 45, morpholino-CNU 28 (exp. 3 and 5), dimethylmorpholine-CNU 45, piperidino-CNU 15, picolyl-3-CNU 25, picolyl-3-CNU.HCl 25 mg/kg; for chemotherapeutic activity against Yoshida sarcoma in the colon wall (in words): i.p.
Description: The chemotherapeutic activity of nitrosoureas was compared in antitumor tests using Yoshida sarcoma ascited cells implanted into the wall of the descending colon in Sprague-Dawley rats.
as §1, §2, §3
(§4) Each experiment involved an untreated control group and a varying number of treated groups. Individual survival times were counted as days after tumor inoculation. At the time of death a record of whether an animal was tumor-free or not was made. All animals alive 120 days after tumor inoculation were killed. Animals that according to macroscopic examination had no tumor at the end of the experiment were considered as cured. Since in a number of control rats also no tumors occurred after 120 days the differences in cures between controls and treated animals rather than absolute numbers are reported. Differences in survival were evaluated statistically by individual comparisons between treated rats and controls using a nonparametric log-rank test (Kalbfleisch and Prentice, The statistical analysis of failure time data, Wiley, New York, 1979). Numerical evaluation was performed using a computerized system.

[4] = Toxicity in treated tumor-bearing rats (Yoshida sarcoma experiments); assay type: in vivo, rat (Sprague-Dawley rats)
Description: as §1, §2, §3, §4

Yoshida sarcoma [5] = details: previous experiments; i.p.; cited from earlier work
rat leukemia L 5222 = experiment: Chemotherapeutic activity against rat Leukemia L5222; assay type: in vivo, rat (BD IX rats); details: rat, in vivo
Description: Chemotherapeutic activity of methylformylamino-CNU against rat Leukemia L5222 (CNU=chloroethyl-nitroso-urea)
The compound to be tested was solved in Chremophor EL/ethanol/physiological saline and a single dose was administered intraperitoneally into tumor inoculated BD IX rats. The experiment involved an untreated control group and a number of treated groups. The doses used and the effects of the praeterminal treatment are summarized in the following Table from which the cures (animals free of tumor after 120 days) and the increase in life span (ILS, expressed as percentage of survival of the treated test group to the untreated control group) are evident.
Considering the fact that the true measure of the effectiveness of a drug against a neoplastic desease is the ability of the drug to kill the neoplastic cells at dosages that are not toxic to the host animal and that a quantitative evaluation of drug action is usually obtained by using the L1210 leucemia system in mice, it will be realized that in this test the tumor cells are injected into the peritoneal cavity of a mouse which thereafter is treated with the drug to be tested at a very early time after the inoculation of the tumor, i.e. at the first or second day after tumor inoculation. Thus such screening is done under very favourable test conditions for the drug. Contrary thereto the administration of the drug to be tested is performed relatively late in the case of the rat leucemia L5222, i.e. at the 8th day after tumor inoculation. It must, therefore, be taken that at that time tumor cells have colonized the cerebral region, i.e. the meninges, so that cures can only be obtained if the drug has an activity high enough to kill the leucemia cells in the cerebral region in a praeterminal state. Thus by far more severe test conditions are involved when treating rat leucemia L5222 or type Yoshida sarcoma which is a tumor model and which are hard to influence by known drugs.

[6] = Experiment 4, 45 mg/kg, 30 initial animals
[7] = Experiment 1, CP 70, BCNU 25, MeCCNU 45 mg/kg
[8] = Experiment 1, CP 70, BCNU 25, MeCCNU 45 mg/kg, initial animals CP 30, BCNU 30, MeCCNU 29
[9] = Experiment 1, i.p. day 8, CP 70, BCNU 25, MeCCNU 45 mg/kg
[10] = Experiment 3, CP 70, morpholino-CNU 28, piperidino-CNU 15 mg/kg
[11] = Experiment 3, CP 70, morpholino-CNU 28, piperidino-CNU 15 mg/kg, 30 initial animals each
[12] = Experiment 5, CP 70, picolyl-3-CNU.HCl 25, morpholino-CNU 28, piperidino-CNU 15 mg/kg
[13] = Experiment 5, CP 70, picolyl-3-CNU.HCl 25, morpholino-CNU 28, piperidino-CNU 15 mg/kg, 15 initial animals (picolyl-3-CNU.HCl 14)

Structure (SMILES): CC1CN(NC(=O)N(CCCl)N=O)CC(C)O1 (stereo not shown) [Dimethylmorpholino-CNU]
- concentration reached in the distal colon (in words) (Yoshida sarcoma [1]): reached the distal colon at chemotherapeutically effective concentrations
- Mean animal weight on day 50 [2]: 250 g
- Mean animal weight on day 100 [2]: 250 g
- water solubility (in words) (Water solubility): water-soluble
- tumor-free animals at the end of the experiment (in words) (Yoshida sarcoma [3]): remarkable increase in tumor-free animals
- increase in tumor-free animals (cures) above controls (Yoshida sarcoma [3]; CP (exp. 1-3)): 20%
- % M (median survival time, untreated control = 100) (Yoshida sarcoma [3]; Experiment 4, 45 mg/kg): 374%
- D1-120 = difference (%) between tf1-120 of treated and untreated animals (Yoshida sarcoma [3]; Experiment 4, 45 mg/kg): 27%
- D120 = difference (%) between tf120 of treated and untreated animals (Yoshida sarcoma [3]; Experiment 4, 45 mg/kg): 20%
- tf1-120 (%) (tf120 + animals dying of toxicity) (Yoshida sarcoma [3]; Experiment 4, 45 mg/kg): 47%
- tf120 (%) (animals surviving day 120 without tumor) (Yoshida sarcoma [3]; Experiment 4, 45 mg/kg): 40%
- tf1-120, No. (tf120 + animals dying of toxicity) (Yoshida sarcoma [3]; [6]): 14
- tf120, No. (animals surviving day 120 without tumor) (Yoshida sarcoma [3]; [6]): 12
- M = median survival time (Yoshida sarcoma [3]; Experiment 4, i.p. day 8, 45 mg/kg): 71 days
- p for improvement of survival time / life expectancy (Yoshida sarcoma [3]; compared with controls, CP (exp. 1-3), dimethylmorpholine-CNU 45 mg/kg): < 0,05
- effect on survival time / life expectancy (in words) (Yoshida sarcoma [3]; listed as Dimethylmorpholine-CNU): significantly improved the life expectancy
- effect on survival time / life expectancy (in words) (Yoshida sarcoma [3]; listed as dimethylmorpholino-CNU): significant increase in survival time
- chemotherapeutic activity against Yoshida sarcoma in the colon wall (in words) (Yoshida sarcoma [3]): active

Structure (SMILES): CC1CCC(NC(=O)N(CCCl)N=O)CC1 (stereo not shown) [MeCCNU, 1-(2-chloroethyl)-3-(4-methylcyclohexyl)-1-nitrosourea]
- Mean animal weight on day 50 [2]: 280 g
- Mean animal weight on day 100 [2]: 300 g
- toxicity (in words) ([4]; at the doses tested): obviously toxic
- mortality at 2880 h ([4]; rat, in vivo, ip, 45 mg/kg, read-out: animals died without a tumor before day 120): 19%
- tumor-free animals at the end of the experiment (in words) (Yoshida sarcoma [3]): increased the rate of tumor-free animals alive at the end of the experiment
- increase in tumor-free animals (cures) above controls (Yoshida sarcoma [3]; CP (exp. 1-3)): 8%
- D1-120 = difference (%) between tf1-120 of treated and untreated animals (Yoshida sarcoma [3]; [7]): 27%
- D120 = difference (%) between tf120 of treated and untreated animals (Yoshida sarcoma [3]; [7]): 8%
- tf1-120 (%) (tf120 + animals dying of toxicity) (Yoshida sarcoma [3]; [7]): 52%
- tf120 (%) (animals surviving day 120 without tumor) (Yoshida sarcoma [3]; [7]): 33%
- tf1-120, No. (tf120 + animals dying of toxicity) (Yoshida sarcoma [3]; [8]): 15
- tf120, No. (animals surviving day 120 without tumor) (Yoshida sarcoma [3]; [8]): 10
- % M (median survival time, untreated control = 100) (Yoshida sarcoma [3]; [9]): 130%
- M = median survival time (Yoshida sarcoma [3]; [9]): 60 days
- activity against Yoshida sarcoma, shown previously (in words) (Yoshida sarcoma [5]): active

Structure (SMILES): O=NN(CCCl)C(=O)NN1CCOCC1 [Morpholino-CNU, 1-(2-chloroethyl)-1-nitroso-3-(4-morpholino)-urea]
- concentration reached in the distal colon (in words) (Yoshida sarcoma [1]): reached the distal colon at chemotherapeutically effective concentrations
- effectiveness in rat leukemia L 5222 (in words) (rat leukemia L 5222): very good effectiveness
- Mean animal weight on day 50 [2]: 270 g
- Mean animal weight on day 100 [2]: 270 g
- water solubility (in words) (Water solubility): water-soluble
- water solubility (in words) (Water solubility; listed as Example 2): highly water-soluble
- tumor-free animals at the end of the experiment (in words) (Yoshida sarcoma [3]): large number of tumor-free animals
- tumor-free animals at the end of the experiment (in words) (Yoshida sarcoma [3]; listed as morpholino-CNU): remarkable increase in tumor-free animals
- % M (median survival time, untreated control = 100) (Yoshida sarcoma [3]; [10]): > 686%
- D1-120 = difference (%) between tf1-120 of treated and untreated animals (Yoshida sarcoma [3]; [10]): 41%
- D120 = difference (%) between tf120 of treated and untreated animals (Yoshida sarcoma [3]; [10]): 34%
- tf1-120 (%) (tf120 + animals dying of toxicity) (Yoshida sarcoma [3]; [10]): 70%
- tf120 (%) (animals surviving day 120 without tumor) (Yoshida sarcoma [3]; [10]): 63%
- tf1-120, No. (tf120 + animals dying of toxicity) (Yoshida sarcoma [3]; [11]): 21
- tf120, No. (animals surviving day 120 without tumor) (Yoshida sarcoma [3]; [11]): 19
- M = median survival time (Yoshida sarcoma [3]; Experiment 3, i.p. day 8, CP 70, morpholino-CNU 28, piperidino-CNU 15 mg/kg): > 120 days
- effect on the survival time on retest (in words) (Yoshida sarcoma [3]; Experiment 5, cyclophosphamide as a standard): significant increasing effect on the survival time
- % M (median survival time, untreated control = 100) (Yoshida sarcoma [3]; [12]): 180%
- D1-120 = difference (%) between tf1-120 of treated and untreated animals (Yoshida sarcoma [3]; [12]): 0%
- D120 = difference (%) between tf120 of treated and untreated animals (Yoshida sarcoma [3]; [12]): 0%
- tf1-120, No. (tf120 + animals dying of toxicity) (Yoshida sarcoma [3]; [13]): 0
- tf120, No. (animals surviving day 120 without tumor) (Yoshida sarcoma [3]; [13]): 0
- M = median survival time (Yoshida sarcoma [3]; Experiment 5, i.p. day 8, CP 70, picolyl-3-CNU.HCl 25, morpholino-CNU 28, piperidino-CNU 15 mg/kg): 18 days
- therapeutic results compared with methyl-CCNU / clinically established nitrosoureas (in words) (Yoshida sarcoma [3]; Yoshida sarcoma of the rat implanted in the colon): better therapeutic results than e.g. the compound methyl-CCNU
- effect on survival time / life expectancy (in words) (Yoshida sarcoma [3]): improved the survival times significantly
- effect on survival time / life expectancy (in words) (Yoshida sarcoma [3]; listed as morpholino-CNU): significant increase in survival time
- chemotherapeutic activity against Yoshida sarcoma in the colon wall (in words) (Yoshida sarcoma [3]): clear chemotherapeutic activity
- chemotherapeutic activity against Yoshida sarcoma in the colon wall (in words) (Yoshida sarcoma [3]; listed as morpholino-CNU): active
